Results on 14 molecules are retold here after patent US9919941B2, “Multiple uses of amine salts for industrial water treatment” (AMSA, Inc., priority 2012, dated 2018).

Where “and” joins values, the source holds several entries; their conditions need not be identical. Equal entries are not always repeated.

Test [1] can be described thus: calcium carbonate scale inhibition (conductometric titration, supersaturation ratio Sr). The procedure: To a 100 mL beaker were added 60 mL of HPLC-grade water and 3 mL of 0.1 M calcium chloride. An appropriate amount (0.5-4 mL) of an aqueous solution of the inhibitor compound of Formula (I) to be tested was then added. The solution was magnetically stirred at a constant speed for all experiments. The sample was then titrated with 0.1 M sodium carbonate. After addition of each 0.2 mL aliquot of sodium carbonate titrant, the solution was mixed for 1 min and then the conductivity of the solution measured.
As titrant is added the conductivity increases in a linear fashion. When the supersaturation point is reached, the conductivity decreases and precipitation begins. This is considered the endpoint of the titration. The resulting titration endpoint volumes are used to calculate a relative supersaturation ratio (Sr). This is the ratio of the supersaturation of calcium carbonate in the presence of the compound of Formula (I) being tested to the value of the supersaturation of water without inhibitor (distilled water plus 3 mL of 0.1 M calcium chloride). Thus, compounds with Sr>1 are displaying scale inhibition.
The scale inhibition performance of various compounds of Formula (I) and comparative compounds were compared at the same molar concentration. These compounds were tested at 60 μM concentration except where noted otherwise. Compound numbers are from Table 1.

A short description of test [2]: mild steel corrosion inhibition, ASTM G31-72 coupon weight loss. The procedure: (§1) Corrosion inhibition studies of various compounds of Formula (I) were conducted according to ASTM method G31-72 (2004). The following is the general test method.
(§2) Aqueous solutions of the test compound (900 mL) were prepared with city water for mild steel corrosion studies or a dilute sea salt solution (1000 ppm in deionized water) for copper corrosion studies. The solutions were magnetically stirred at a constant rate in a 1 L beaker and three coupons of either mild steel or copper were suspended in each beaker. After 5 days (steel) or 7 days (copper), the coupons were removed and cleaned according to ASTM method G1-03. Average weight loss was determined for each set of three coupons and then converted to corrosion rate in terms of mils per year (mpy).
These tests compare the corrosion inhibition of compounds of Formula (I), namely from Table 1, in the first set of comparisons, Compound A with Compound 13, and Compound B with Compound 1, and with 2-hydroxypropane-1,2,3-tricarboxylic acid. Thus five samples were tested relative to a blank and a standard, (1-hydroxyethan-1,1-diyl)bis(phosphonic acid), after 5 days at 26 μM concentrations. […] Concentrations were 26 μM.
Additional mild steel corrosion tests were performed at 130 μM concentration of compounds of Formula (I) and comparative compounds for 5 days. The next test compared the corrosion inhibition of Compound 8 with 2,3-dihydroxybutanedioic acid and Compound B, and Compound 4 with (1-hydroxyethan-1,1-diyl)bis(phosphonic acid) and Compound B. Also included was Compound 1 for reference. Concentrations in this set were 130 μM.

The nature of test [3]: copper corrosion inhibition, ASTM G31-72 coupon weight loss. The procedure: as §1, §2
The first test of copper corrosion inhibition compared Compound A with Compound 13 (from Table 1), 2-hydroxypropane-1,2,3-tricarboxylic acid, and a commercial inhibitor, Na-TAI.

[4] abbreviates: 5 days, 130 μM, Table 4 (blank 24 mpy).
Setting [5] is: 130 μM, Table 5 (blank 12.5 mpy).

On to `O=C(O)C(O)C(O)C(O)C(O)C(=O)O` (stereo not drawn) [2,3,4,5-tetrahydroxyhexanedioic acid], for which, in test [1] (60 μM), the “Sr (supersaturation ratio)” value is 1.4.

Take `O=C(O)C(O)C(O)C(=O)O` (stereo not drawn) [2,3-Dihydroxybutanedioic acid]: the “Sr (supersaturation ratio)” value in test [1] (60 μM) turned out to be 1.0. The “Inhibition relative to blank” value in test [2] (setting [4]) stood at 20%.

Take `O=C(O)CC(O)(CC(=O)O)C(=O)O` [2-hydroxypropane-1,2,3-tricarboxylic acid]: the “Sr (supersaturation ratio)” value in test [1] (63 μM) is given as 1.2. In addition, the “Inhibition relative to blank” value in test [2] (5 days, 26 μM, Table 3, 26 µM) was 9.8% and 10%; in test [3] (42 μM, Table 7) it was 9%; in test [3] (7 days, 17 μM, Table 6) it was 0%.

As to `O=C(O)CCC(CC(=O)O)(C(=O)O)P(=O)(O)O` (stereo not drawn) [2-phosphonobutane-1,2,4-tricarboxylic acid], the “Sr (supersaturation ratio)” value in test [1] (5.9 μM) was 3.0.

For the molecule `CC(O)(P(=O)(O)O)P(=O)(O)O` [(1-hydroxyethan-1,1-diyl)bis(phosphonic acid)], the “Sr (supersaturation ratio)” value in test [1] (45 μM) was 2.5; in test [1] (60 μM) it was 4.4. The “Inhibition relative to blank” value in test [2] (5 days, 26 μM, Table 3) was found to be 36%; in test [2] (setting [4]) it was 62%.

With `O=C(O)CCC(=O)O` [Butanedioic acid], the “Sr (supersaturation ratio)” value in test [1] (60 μM) was 1.0.

In the case of `CC(O)(P(=O)(O)O)P(=O)(O)O.CCCCCCCCCCOCCCN` [Compound 4, Salt of Oxyamine (II) and (1-Hydroxyethan-1,1-diyl)bis(phosphonic acid) (1:1 Molar Stoichiometry)], in test [1] (60 μM), the “Sr (supersaturation ratio)” value came out at 4.3. The “Inhibition relative to blank” value in test [2] (setting [4]) is recorded as 68%.

As to `O=C(O)C(=O)O` [Ethanedioic acid], in test [2] (setting [5]), the “Inhibition relative to blank” value is recorded as −16%.

For the molecule `[Na+].c1ccc2[n-]nnc2c1` [Na-TAI, sodium salt of 1,2,3-triaza-1H-indene], the “Inhibition relative to blank” value in test [3] (7 days, 17 μM, Table 6) stood at 71%.

In the case of `O=P(O)(O)O` [Trihydroxidooxidophosphorus], in test [2] (setting [5]), the “Inhibition relative to blank” value was 40%.

Take “Salt of Oxyamine (II) and 2,3-Dihydroxybutanedioic acid salt (1:1 molar stoichiometry) [Compound 8]”: the “Sr (supersaturation ratio)” value in test [1] (60 μM) was 1.3; in test [1] (120 μM) it was 1.5. Moreover, the “Inhibition relative to blank” value in test [2] (setting [4]) is listed as 44%.

Take “Salt of Oxyamine (II) and Butanedioic acid salt (1:1 molar stoichiometry) [Compound 10]”: in test [1] (60 μM), the “Sr (supersaturation ratio)” value stood at 1.0.

With “Salt of Oxyamine (II) and Ethanedioic acid salt (1:1 molar stoichiometry [Compound 2]”, the “Inhibition relative to blank” value in test [2] (setting [5]) was −21%.

Consider “Salt of Oxyamine (II) and Trihydroxidooxidophosphorus salt (1:1 molar stoichiometry) [Compound 3]”, for which, in test [2] (setting [5]), the “Inhibition relative to blank” value is listed as 55%.
